Source: US20020137929A1, “1 - (3-heterocyclylphenyl) isothiourea, -isourea, -guanidine and -amidine herbicidal agents” (Intellectual Property Department, BASF Aktiengesellschaft, priority 1998, published 2002)

How the values were obtained:
ECHCG (Barnyardgrass) = assay: Postemergence herbicidal evaluation; format: in vivo, Echinochloa crus-galli; settings: postemergence
In short: (§1)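 Visual 0–9 rating versus control (stand, vigor, malformation, size, chlorosis, overall appearance), taken four to five weeks post-spray. Two-week-old seedlings received roughly 0.0156–0.500 kg/ha active in acetone/water (50/50) with 0.5% TWEEN 20 via nozzle at 40 psi.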

[1] = tested on: SAGPY (Arrowhead (Pygmaea)); assay: Preemergence weed control under flooded paddy conditions; format: in vivo, Sagittaria pygmaea; settings: rated 3-4 weeks after treatment
In short: (§2)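 Greenhouse paddy assay. Acetone/water (50/50 v/v) solutions dosed into flood water, equivalent to about 0.0313 to 0.500 kg/ha active ingredient, over seeds planted 0.5 cm deep in silt loam. Score: 0-9 visual, based on stand, vigor, malformation, size and chlorosis, 3 to 4 weeks after treatment.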

CASOB (Sicklepod) [2] = assay: Postemergence herbicidal evaluation; format: in vivo, Cassia obtusifolia; settings: postemergence
In short: as §1

GALAP (Galium) [3] = assay: Preemergence herbicidal evaluation; format: in vivo, Galium aparine; settings: rated 4-5 weeks after treatment, rating scale 0-9
In short: (§3)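 Visual 0-9 rating vs control (stand, vigor, malformation, size, chlorosis, overall appearance), scored 4-5 wk after spraying. Seeded soil cups were treated preemergence with compound in aqueous acetone, ~0.0156-0.500 kg/ha equivalent.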

GALAP (Galium) [4] = assay: Postemergence herbicidal evaluation; format: in vivo, Galium aparine; settings: postemergence
In short: as §1

[5] = tested on: CHEAL (Lambsquarters, Common); assay: Postemergence herbicidal evaluation; format: in vivo, Chenopodium album; settings: postemergence
In short: as §1

CYPSE (Flatsedge) = assay: Preemergence weed control under flooded paddy conditions; format: in vivo, Cyperus serotinus; settings: rated 3-4 weeks after treatment
In short: as §2

ZEAMX (Corn, Field) = assay: Preemergence herbicidal evaluation; format: in vivo, Zea mays; settings: rated 4-5 weeks after treatment, rating scale 0-9
In short: as §3

AMBEL (Ragweed, Common) = assay: Postemergence herbicidal evaluation; format: in vivo, Ambrosia artemisifolia; settings: postemergence
In short: as §1

[6] = tested on: GLXMAW (Soybean, Williams); assay: Postemergence herbicidal evaluation; format: in vivo, Glycine max, (L.) Merr. cv Williams; settings: postemergence
In short: as §1

SETVI (Foxtail, Green) = assay: Postemergence herbicidal evaluation; format: in vivo, Setaria viridis; settings: postemergence
In short: as §1

ORYSAT (Rice, Tebonnet) = assay: Postemergence herbicidal evaluation; format: in vivo, Oryza sativa, (L.) Tebonnet; settings: postemergence
In short: as §1

CASOB (Sicklepod) [7] = assay: Preemergence herbicidal evaluation; format: in vivo, Cassia obtusifolia; settings: rated 4-5 weeks after treatment, rating scale 0-9
In short: as §3

CYPIR (Rice Flatsedge) = assay: Preemergence weed control under flooded paddy conditions; format: in vivo, Cyperus iria; settings: rated 3-4 weeks after treatment
In short: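 Ratings on a 0-9 visual scale cover stand, vigor, malformation, size, chlorosis and overall appearance relative to a control, taken three to four weeks post-treatment. Application was into flood water over freshly sown silt loam at roughly 0.0313 to 0.500 kg/ha.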

With `Cc1cccc(CN2C(=O)CSC2=Nc2cc(-n3c(=O)cc(C(F)(F)F)n(C)c3=O)c(F)cc2Cl)c1` [Compound 130, 3-{4-Chloro-2-fluoro-5-{[3-(m-methylbenzyl)-4-oxo-2-thiazolidinylidene]amino}phenyl}-1-methyl-6-(trifluoromethyl)-2,4 (1H, 3H)-pyrimidinedione] the “herbicidal rating ECHCG” value (ECHCG (Barnyardgrass); rate 0.0156 kg/ha) was 2.0, the “herbicidal rating ECHCG” value (ECHCG (Barnyardgrass); rate 0.0313 kg/ha) was 2.0 and the “herbicidal rating ECHCG” value (ECHCG (Barnyardgrass); rate 0.0625 kg/ha) was 3.0. The “herbicidal effect rating, SAGPY” value ([1]; 0.0313 kg/ha) was 4.0, the “herbicidal effect rating, SAGPY” value ([1]; 0.0625 kg/ha) was 4.0 and the “herbicidal effect rating, SAGPY” value ([1]; 0.1250 kg/ha) was 0.0. For the same molecule, the “herbicidal effect rating, SAGPY” value ([1]; 0.2500 kg/ha) was 3.0, the “herbicidal rating CASOB” value (CASOB (Sicklepod) [2]; rate 0.0156 kg/ha) was 2.0 and the “herbicidal rating CASOB” value (CASOB (Sicklepod) [2]; rate 0.0313 kg/ha) was 4.0. For the same molecule, the “herbicidal rating CASOB” value (CASOB (Sicklepod) [2]; rate 0.0625 kg/ha) was 5.0, the “Preemergence herbicidal rating GALAP” value (GALAP (Galium) [3]; rate 0.0156 kg/ha) was 0.0 and the “Preemergence herbicidal rating GALAP” value (GALAP (Galium) [3]; rate 0.0625 kg/ha) was 0.0. The “Preemergence herbicidal rating GALAP” value (GALAP (Galium) [3]; rate 0.1250 kg/ha) was 2.0, the “Preemergence herbicidal rating GALAP” value (GALAP (Galium) [3]; rate 0.2500 kg/ha) was 2.0 and the “herbicidal rating GALAP” value (GALAP (Galium) [4]; rate 0.0156 kg/ha) was 2.0. The “herbicidal rating GALAP” value (GALAP (Galium) [4]; rate 0.0313 kg/ha) was 3.0, the “herbicidal rating GALAP” value (GALAP (Galium) [4]; rate 0.0625 kg/ha) was 5.0 and the “herbicidal rating CHEAL” value ([5]; rate 0.0156 kg/ha) was 7.0. For the same molecule, the “herbicidal rating CHEAL” value ([5]; rate 0.0313 kg/ha) was 9.0, the “herbicidal rating CHEAL” value ([5]; rate 0.0625 kg/ha) was 9.0 and the “herbicidal effect rating, CYPSE” value (CYPSE (Flatsedge); 0.0313 kg/ha) was 5.0. The “herbicidal effect rating, CYPSE” value (CYPSE (Flatsedge); 0.0625 kg/ha) was 5.0, the “herbicidal effect rating, CYPSE” value (CYPSE (Flatsedge); 0.1250 kg/ha) was 0.0 and the “herbicidal effect rating, CYPSE” value (CYPSE (Flatsedge); 0.2500 kg/ha) was 7.0. For the same molecule, the “Preemergence herbicidal rating ZEAMX” value (ZEAMX (Corn, Field); rate 0.0156 kg/ha) was 0.0, the “Preemergence herbicidal rating ZEAMX” value (ZEAMX (Corn, Field); rate 0.0313 kg/ha) was 1.0 and the “Preemergence herbicidal rating ZEAMX” value (ZEAMX (Corn, Field); rate 0.0625 kg/ha) was 4.0. For the same molecule, the “Preemergence herbicidal rating ZEAMX” value (ZEAMX (Corn, Field); rate 0.1250 kg/ha) was 7.0, the “Preemergence herbicidal rating ZEAMX” value (ZEAMX (Corn, Field); rate 0.2500 kg/ha) was 9.0 and the “herbicidal rating AMBEL” value (AMBEL (Ragweed, Common); rate 0.0156 kg/ha) was 9.0. The “herbicidal rating AMBEL” value (AMBEL (Ragweed, Common); rate 0.0313 kg/ha) was 9.0, the “herbicidal rating AMBEL” value (AMBEL (Ragweed, Common); rate 0.0625 kg/ha) was 9.0 and the “herbicidal rating GLXMAW” value ([6]; rate 0.0156 kg/ha) was 5.5. For the same molecule, the “herbicidal rating GLXMAW” value ([6]; rate 0.0313 kg/ha) was 7.0, the “herbicidal rating GLXMAW” value ([6]; rate 0.0625 kg/ha) was 8.0 and the “herbicidal rating SETVI” value (SETVI (Foxtail, Green); rate 0.0156 kg/ha) was 4.0. The “herbicidal rating SETVI” value (SETVI (Foxtail, Green); rate 0.0313 kg/ha) was 6.0, the “herbicidal rating SETVI” value (SETVI (Foxtail, Green); rate 0.0625 kg/ha) was 7.0 and the “herbicidal rating ORYSAT” value (ORYSAT (Rice, Tebonnet); rate 0.0156 kg/ha) was 3.0. The “herbicidal rating ORYSAT” value (ORYSAT (Rice, Tebonnet); rate 0.0313 kg/ha) was 3.0, the “herbicidal rating ORYSAT” value (ORYSAT (Rice, Tebonnet); rate 0.0625 kg/ha) was 3.5 and the “Preemergence herbicidal rating CASOB” value (CASOB (Sicklepod) [7]; rate 0.0156 kg/ha) was 0.0. For the same molecule, the “Preemergence herbicidal rating CASOB” value (CASOB (Sicklepod) [7]; rate 0.0313 kg/ha) was 1.0, the “Preemergence herbicidal rating CASOB” value (CASOB (Sicklepod) [7]; rate 0.0625 kg/ha) was 2.0 and the “Preemergence herbicidal rating CASOB” value (CASOB (Sicklepod) [7]; rate 0.2500 kg/ha) was 3.0. The “herbicidal effect rating, CYPIR” value (CYPIR (Rice Flatsedge); 0.0313 kg/ha) was 0.0, the “herbicidal effect rating, CYPIR” value (CYPIR (Rice Flatsedge); 0.0625 kg/ha) was 2.0 and the “herbicidal effect rating, CYPIR” value (CYPIR (Rice Flatsedge); 0.1250 kg/ha) was 4.0. The “herbicidal effect rating, CYPIR” value (CYPIR (Rice Flatsedge); 0.2500 kg/ha) was 6.0.
